The record followed here is ChEMBL document CHEMBL1201862, “PubChem BioAssay data set” (2004).

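Growth conditions: 96-well plates. Treatment: test compound, 48 hours, 5 concentrations. Analysis: linear interpolation between bracketing concentrations; unreached endpoints set to highest concentration. GI50 is the concentration that inhibits growth by half.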 Active and inactive are the calls of the source. Cut-off read from the data, not from the text of the source: active = GI50 up to about 1.1 µM and inactive = higher.

Some test systems named below: 786-0; NCI-H23; OVCAR-3; SNB-19; LOX IMVI; SF-539; Hs-578T; NCI-H460; NCI-H226; MOLT-4; COLO 205; A498; SK-MEL-5; T47D; RXF 393; EKVX; HCT-116; K562; OVCAR-5; KM-20L2.
Test in all cases: NCI anticancer screen, dose series, 48 h

Regarding `CCn1cc(C(=O)O)c(=O)c2cc(F)c(N3CCN(CN4C(=O)/C(=N\c5ncc(Cc6cc(OC)c(OC)c(OC)c6)c(N)n5)c5cc(Cl)ccc54)CC3)cc21`, the GI50 in the assay on 786-0, in the assay on NCI-H23, with OVCAR-3, with SNB-19, in the assay with LOX IMVI and in the assay on SF-539 was > 100 µM (inactive) each time. Further, the GI50 was > 100 µM (inactive) with Hs-578T; > 100 µM (inactive) in the assay with NCI-H460; > 100 µM (inactive) in the assay with NCI-H226; 0.38 µM (active) in the assay with MOLT-4; > 100 µM (inactive) in the assay on COLO 205; > 100 µM (inactive) in the assay with A498. Further, the GI50 in the assay on SK-MEL-5 was > 100 µM (inactive); in the assay with T47D, > 100 µM (inactive); in the assay on RXF 393 it was > 100 µM (inactive); in the assay on EKVX it was > 100 µM (inactive); in the assay on HCT-116 it was 74.3 µM (inactive); in the assay with K562 it was 15.9 µM (inactive). In addition, the GI50 in the assay on OVCAR-5 is > 100 µM (inactive).
For `CSc1cc(N)ccc1/N=N/c1ccc(S(N)(=O)=O)cc1`, the GI50 in the assay on 786-0 was 26 µM (inactive); in the assay on NCI-H23, 33.4 µM (inactive); in the assay with OVCAR-3, 25.1 µM (inactive); with SNB-19, 55.3 µM (inactive); in the assay with LOX IMVI, 29.6 µM (inactive); in the assay on SF-539 it was 31.5 µM (inactive). Further, the GI50 is 23.5 µM (inactive) with Hs-578T; 24.2 µM (inactive) in the assay with NCI-H460; 13.2 µM (inactive) with NCI-H226; 31.3 µM (inactive) in the assay with MOLT-4; 25.8 µM (inactive) in the assay on COLO 205; 48 µM (inactive) in the assay with A498. Moreover, the GI50 is 15.3 µM (inactive) in the assay on SK-MEL-5; 18.8 µM (inactive) with T47D; 30.5 µM (inactive) in the assay with RXF 393; 31 µM (inactive) in the assay on EKVX; 30.5 µM (inactive) in the assay with HCT-116; 38.1 µM (inactive) in the assay with K562. Further, the GI50 in the assay with OVCAR-5 was 45 µM (inactive).
On to `COC(=O)c1ccccc1CC1Cc2cc3c(cc2C1=O)CCC3` (configuration not stated), for which the GI50 with 786-0 is 16.6 µM (inactive); with NCI-H23 it was 19.3 µM (inactive); with OVCAR-3, 13.1 µM (inactive); in the assay with SNB-19, 21.4 µM (inactive); in the assay with LOX IMVI, 7.31 µM (inactive); in the assay on SF-539, 16.8 µM (inactive). The GI50 with Hs-578T is 19.6 µM (inactive); with NCI-H460, 29.7 µM (inactive); in the assay with NCI-H226 it was 18.5 µM (inactive); in the assay with MOLT-4, 5.11 µM (inactive); with COLO 205, 8.59 µM (inactive); with A498 it was 11.7 µM (inactive). The GI50 is 7.83 µM (inactive) with SK-MEL-5; 16 µM (inactive) in the assay on T47D; 2.56 µM (inactive) in the assay on RXF 393; 25.8 µM (inactive) in the assay on EKVX; 5.32 µM (inactive) with HCT-116; 3.69 µM (inactive) in the assay on K562. Further, the GI50 in the assay on OVCAR-5 was 26.5 µM (inactive).
Consider `CCCCCCCCCOC(=S)NC`, for which the GI50 is 18.2 µM (inactive) in the assay with 786-0; 16.7 µM (inactive) in the assay on NCI-H23; 19.9 µM (inactive) in the assay on OVCAR-3; 18 µM (inactive) in the assay on KM-20L2; 30.8 µM (inactive) in the assay on SNB-19; 18.2 µM (inactive) in the assay with LOX IMVI. For the same compound, the GI50 is 17.6 µM (inactive) in the assay with SF-539; 19.7 µM (inactive) in the assay with NCI-H460; 17.1 µM (inactive) in the assay with MOLT-4; 22.8 µM (inactive) in the assay on COLO 205; 20.1 µM (inactive) in the assay on A498; 19.1 µM (inactive) in the assay with SK-MEL-5. Moreover, the GI50 in the assay with RXF 393 was > 10 µM (inactive); with EKVX, 28.1 µM (inactive); in the assay with K562 it was 21.8 µM (inactive); in the assay on OVCAR-5, 18.3 µM (inactive).
`Cc1cc(Cl)ccc1NC(=O)C(=O)Cc1nc2ccc(C(=O)c3ccccc3)cc2nc1O`: the GI50 in the assay on 786-0, in the assay with NCI-H23, in the assay on OVCAR-3, with KM-20L2, with SNB-19 and in the assay with LOX IMVI was > 100 µM (inactive) throughout. Further, the GI50 was > 100 µM (inactive) in the assay on SF-539; 96.8 µM (inactive) with NCI-H460; 64.7 µM (inactive) in the assay with NCI-H226; 46.8 µM (inactive) in the assay with MOLT-4; > 100 µM (inactive) with COLO 205; 79.6 µM (inactive) in the assay on SK-MEL-5. The GI50 in the assay with RXF 393, in the assay on EKVX and in the assay with HCT-116 was > 100 µM (inactive) throughout.
On to `COC(=O)N/N=C/c1oc(-c2cccc([N+](=O)[O-])c2)c(-c2cccc([N+](=O)[O-])c2)c1[N+](=O)[O-]`, for which the GI50 was > 100 µM (inactive) in the assay on 786-0; > 100 µM (inactive) in the assay on NCI-H23; > 100 µM (inactive) with OVCAR-3; > 100 µM (inactive) in the assay on KM-20L2; > 100 µM (inactive) in the assay on SNB-19; 37.2 µM (inactive) with LOX IMVI. In addition, the GI50 with NCI-H460 is > 100 µM (inactive); in the assay with MOLT-4, 24.2 µM (inactive); in the assay with COLO 205 it was > 100 µM (inactive); in the assay on SK-MEL-5, > 100 µM (inactive); in the assay with RXF 393, > 100 µM (inactive); in the assay with EKVX, > 100 µM (inactive). Besides, the GI50 in the assay with HCT-116 was > 100 µM (inactive); in the assay on K562, 26.5 µM (inactive); in the assay on OVCAR-5 it was > 100 µM (inactive).
For `NC(Cc1cccnn1)C(=O)O` (configuration not stated), the GI50 in the assay on 786-0, in the assay with NCI-H23, with OVCAR-3, in the assay on SNB-19, in the assay on LOX IMVI and in the assay with SF-539 was > 100 µM (inactive) throughout. In addition, the GI50 in the assay on Hs-578T, with NCI-H460, in the assay with NCI-H226, in the assay with MOLT-4, with COLO 205 and in the assay on A498 was > 100 µM (inactive) in each case. The GI50 with SK-MEL-5, in the assay with T47D, in the assay on RXF 393, in the assay with EKVX, in the assay on HCT-116 and with K562 was > 100 µM (inactive) throughout. In the assay with OVCAR-5, the GI50 is > 100 µM (inactive).
Regarding `O=C(Nc1cc(Cl)ccc1Cl)c1cc2cccc(Br)c2oc1=O`, the GI50 in the assay on 786-0 was > 100 µM (inactive); in the assay on NCI-H23 it was > 100 µM (inactive); in the assay on OVCAR-3, 59.8 µM (inactive); with KM-20L2, > 100 µM (inactive); in the assay with SNB-19, > 100 µM (inactive); with LOX IMVI, > 100 µM (inactive). In addition, the GI50 in the assay with SF-539 is 56.4 µM (inactive); with NCI-H460, > 100 µM (inactive); in the assay with NCI-H226, > 100 µM (inactive); in the assay with MOLT-4 it was > 100 µM (inactive); in the assay on COLO 205 it was > 100 µM (inactive); in the assay with SK-MEL-5 it was > 100 µM (inactive). Also, the GI50 in the assay with RXF 393, with EKVX, with HCT-116 and in the assay with K562 was > 100 µM (inactive) each time.
Regarding `Cc1ccc(C(=O)c2[nH]c(Nc3cc(C)ccn3)c(C(=S)Nc3ccccc3)c2N)cc1`, the GI50 in the assay on 786-0, with NCI-H23, in the assay on OVCAR-3, in the assay with SNB-19, in the assay on LOX IMVI and in the assay on SF-539 was > 100 µM (inactive) each time. Besides, the GI50 with Hs-578T, in the assay on NCI-H460, with NCI-H226, in the assay with MOLT-4, in the assay on COLO 205 and in the assay on A498 was > 100 µM (inactive) each time. Moreover, the GI50 with SK-MEL-5, with T47D, in the assay on RXF 393, in the assay with EKVX, in the assay with HCT-116 and in the assay with K562 was > 100 µM (inactive) throughout. The GI50 with OVCAR-5 was > 100 µM (inactive).
Regarding `CCCCNC(=S)OCCC(C)CCCC(C)C` (configuration not stated), the GI50 in the assay with 786-0, in the assay with NCI-H23, with KM-20L2, in the assay with SNB-19, in the assay on LOX IMVI and with SF-539 was > 100 µM (inactive) throughout. Besides, the GI50 in the assay on NCI-H460, with MOLT-4, in the assay on A498, in the assay with SK-MEL-5, with RXF 393 and with EKVX was > 100 µM (inactive) in each case. Moreover, the GI50 in the assay on HCT-116, in the assay with K562 and with OVCAR-5 was > 100 µM (inactive) throughout.
For `O=C(CN1CCN(c2cccc(Cl)c2)CC1)N1CCc2c([nH]c3ccccc23)C1c1cccnc1` (configuration not stated), the GI50 in the assay on 786-0 is 11.8 µM (inactive); with NCI-H23, 16.4 µM (inactive); in the assay with OVCAR-3, 15.5 µM (inactive); in the assay with KM-20L2 it was 3 µM (inactive); with SNB-19 it was 26.1 µM (inactive); in the assay on SF-539 it was 15.5 µM (inactive). Moreover, the GI50 with NCI-H460 was 4.4 µM (inactive); with MOLT-4 it was 2.54 µM (inactive); with A498, 20.5 µM (inactive); with SK-MEL-5 it was 11.9 µM (inactive); with RXF 393, 2.67 µM (inactive); in the assay with EKVX, 16.8 µM (inactive). Besides, the GI50 in the assay with HCT-116 was 4.5 µM (inactive); with K562 it was 3.03 µM (inactive); in the assay on OVCAR-5 it was 3.96 µM (inactive).
Regarding `C/C(CC(=O)Nc1cccc([N+](=O)[O-])c1)=N\NC(=O)C[n+]1ccccc1`, the GI50 with 786-0, in the assay on NCI-H23, in the assay on OVCAR-3, in the assay with KM-20L2, in the assay with LOX IMVI and with SF-539 was > 100 µM (inactive) throughout. Also, the GI50 in the assay with NCI-H460, in the assay with NCI-H226, in the assay with MOLT-4, in the assay on COLO 205, with SK-MEL-5 and in the assay with RXF 393 was > 100 µM (inactive) each time. Further, the GI50 in the assay with EKVX, in the assay on HCT-116 and with OVCAR-5 was > 100 µM (inactive) each time.
